Like-named read-outs stand apart in the source and are kept apart here.
What was measured:
[1] = test system: Antioxidant response element; experiment: MitoOxTox: oxidative stress response in AREc32; conditions: for EC10, linear / logEC10: Bioassay ARE, dosing range all; for EC10, linear: linear model fit; for logEC10: log-logistic model fit
Excerpt: (§1) All bioassay media components and the ERα-UAS-bla GripTite and PPARγ-UAS-bla cells were obtained from Thermo Fisher Scientific (Waltham, MA, USA). AREc32 reporter gene cells based on MCF7 were provided by C. Roland Wolf (Cancer Research UK); AhR CALUX cells (H4L7.5c2 derived from H4IIe) were provided by Michael Denison (UC Davis, USA); and SH-SY5Y cells were purchased from Sigma-Aldrich.
(§2) Cell culture conditions and bioassay protocols including response detection are provided in Text S2.1–2.4 and Table S3. − Cell viability was determined from cell confluency using an IncuCyte S3 Live-Cell Analysis System (Sartorius AG, Essen, Germany) before and after exposure, except for SH-SY5Y cells (live–dead staining with Nuclear Green LcS1 and propidium iodide, Abcam, UK). For metabolic activation experiments, cell viability was assessed using the ToxBLAzer DualScreen Kit (Thermo Fisher Scientific) to capture the remaining toxicity in ERα-UAS-bla GripTite after treatment with the aCYP catalyst (details in Text S2.4).
(§3) For ARE, the concentration that triggered an induction ratio of 1.5 (ECIR1.5) was used as the benchmark value, as detailed in Text S2.5. IC10 values also served as a threshold for data analysis in all assays; only concentrations below IC10 were considered when deriving EC10 or ECIR1.5. […]
(§4) S2: Cell culture and bioassays
(§5) S2.1: Cell Culturing Conditions
(§6) All suppliers and sources are given in detail in SI-Excel S3. The bioassay media for the different assays were prepared as follows: Assay medium for ER alpha-UAS-bla GripTite (ERα) and PPAR gamma-UAS-bla 293H (PPARγ) was prepared with 98% Opti-MEM, supplemented with 2% charcoal-stripped FBS, and 100 U/mL penicillin-streptomycin. MitoOxTox and AhR assay medium was comprised of 90% DMEM with GlutaMAX, supplemented with 10% FBS, and 100 U/mL penicillin-streptomycin. Neurotoxicity assay medium consisted of the neurobasal […]
(§7) (1 picture or pasted object on this page, not shown here) […]
(§8) medium, supplemented with 2% B-27 Supplement and 2 mM GlutaMAX Supplement. SH - SY5Y cells were differentiated with 10 µM all-trans retinoic acid prior to the assay.
(§9) S2.2: Cell Seeding and Incubation. For all bioassays, cell suspensions in the respective assay medium were dispensed into each well of 384-well plates using a MultiFlo Dispenser (Biotek, (now Agilent), Winooski, VT, U.S.). After seeding, the plates were incubated at 37° C and 5% CO₂ for […]. The final cell densities and plate types were as follows: Black poly-D-lysine coated 384-well plates (Product No. 354663, Corning Inc., NYC, U.S.) were used for PPARγ:
(§10) 6500 cells/well, ERα: 5000 cells/well. White 384-well plates with a clear bottom (Product No.
(§11) 781098, Greiner, Kremsmünster, Austria) were utilized for the MitoOxTox assay: 2650

[2] = test system: SH-SY5Y cells; experiment: cells; conditions: for EC10: Homo sapiens, SH-SY5Y;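 on Relative effect potency REPNOI: EC10 of BPA divided by EC10 of the test compound so values above 1 mean more potent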;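 on Specificity ratio (SRbaseline) SRNOI: ratio of predicted baseline cytotoxicity IC10 to the neurite outgrowth inhibition EC10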
Excerpt: as §1, §2, §3, §4, §5, §6, §7, §8, §9, §10, §11

[3] = test system: H4IIe (AhR CALUX)
Protocol: as §2
(§12) For ARE, the concentration that triggered an induction ratio of 1.5 (ECIR1.5) was used as the benchmark value, as detailed in Text S2.5. IC10 values also served as a threshold for data analysis in all assays; only concentrations below IC10 were considered when deriving EC10 or ECIR1.5.
(§13) We measured the cytotoxicity of BPA and its alternatives in HEK293H (PPARγ), HEK293T (ERα), H4IIe (AhR CALUX), MCF7 (ARE/MMP), and differentiated SH-SY5Y cells (Table S6). […]
as §9, with “coated 384-well plates (Product No. 354663, Corning Inc., NYC, U.S.) were used for PPARγ:” left out
as §10
(§14) NYC, U.S.) for AhR: 3250 cells/well. Black Collagen I coated plates were used (Product No.
(§15) S2.3: Chemical Dosing and Assay Analysis Procedures. The dosing procedure and high-throughput assay workflow have been described in detail before. 9 The dosing concentrations […]
(§16) Stock solutions were then either added directly to the respective cell culture medium or evaporated under nitrogen, followed by replenishment with fresh medium. The final solvent content in each well was kept below 1% for methanol, 0% for acetonitrile.
(§17) Dosing plates were prepared as 11 -step serial dilutions using a Hamilton Microlab Star robotic system (Hamilton, Bonaduz, Switzerland), and chemicals were dosed in duplicates by transferring 10 μL twice from the dosing plates to the cell plates . After quantifying cell confluency as described in S2. 4., the exposed cells were incubated at 37° C and 5% CO₂ for an additional 24 h. All chemicals were tested in all assays with at least three independent […]
(§18) S2.4: Cell Viability Measurement s and bioanalytical protocols . The confluency as a measure of cell viability was determined with an IncuCyte S3 Live -Cell Analysis System (Sartorius AG, Essen, Germany). With this method the confluency of cells in a microscopy image are normalized to control wells without cells and compared before and after 24 hours of exposure.
(§19) This method has been described previously 13. […]

[4] = test system: HEK293H (PPARγ)
Protocol: as §2, §12, §13
as §9, with “coated 384-well plates (Product No. 354663, Corning Inc., NYC, U.S.) were used for PPARγ:” left out
as §10, §14, §15, §16, §17, §18, §19

[5] = test system: HEK293T (ERα)
Protocol: as §2, §12, §13
as §9, with “coated 384-well plates (Product No. 354663, Corning Inc., NYC, U.S.) were used for PPARγ:” left out
as §10, §14, §15, §16, §17, §18, §19

[6] = test system: MCF7 (ARE/MMP); conditions: for IC10, linear transformed / IC10, linear / logIC10: dosing range all
Protocol: as §2, §12, §13
as §9, with “coated 384-well plates (Product No. 354663, Corning Inc., NYC, U.S.) were used for PPARγ:” left out
as §10, §14, §15, §16, §17, §18, §19

[7] = read-out: EC10, linear transformed

Structure (SMILES): CC(C)c1cc(C(C)(C)c2ccc(O)c(C(C)C)c2)ccc1O [BPG, 2,2-Bis(4-hydroxy-3-isopropylphenyl)propane]
- EC10, linear [1]: no effect
- logEC10 [1]: no effect
- EC10 [2, 7]: 2.67e-05 M
- EC10, linear ([2]; NOI bioassay, dosing range all, linear model): no effect
- logEC10 ([2]; NOI bioassay, dosing range all, log-logistic model): no effect
- IC10, linear transformed ([3]; Bioassay AhR, cytotoxicity, dosing range all): 2.43E-05
- IC10, linear ([3]; Bioassay AhR, cytotoxicity, dosing range all, linear model fit): 2.10E-05
- logIC10 ([3]; Bioassay AhR, cytotoxicity, dosing range all, log-logistic model fit): -4.61
- Toxic ratio (TR) TRAhR ([3]; against baseline cytotoxicity): 0.25
- IC10, H4IIe, AhR ([3]; cytotoxicity, H4IIe (AhR assay cells)): 21 µM
- IC10, linear transformed ([4]; PPARγ bioassay cytotoxicity, dosing range all): 3.91E-06
- IC10, linear ([4]; PPARγ bioassay cytotoxicity, dosing range all, linear model): 5.23E-06
- logIC10 ([4]; PPARγ bioassay cytotoxicity, dosing range all, log-logistic model): -5.19
- Toxic ratio (TR) TRPPARγ ([4]; against baseline cytotoxicity): 0.22
- IC10, HEK293, PPARγ ([4]; cytotoxicity, HEK293 (PPARγ assay cells)): 6.46 µM
- IC10, linear transformed ([5]; Bioassay ERα, cytotoxicity, dosing range all): 5.99E-06
- IC10, linear ([5]; Bioassay ERα, cytotoxicity, dosing range all, linear model fit): no cytotoxicity
- logIC10 ([5]; Bioassay ERα, cytotoxicity, dosing range all, log-logistic model fit): -5.16
- Toxic ratio (TR) TRERα ([5]; against baseline cytotoxicity): 0.21
- IC10, HEK293, ERα ([5]; cytotoxicity, HEK293 (ERα assay cells)): 6.95 µM
- IC10, linear transformed ([6]; Bioassay ARE, cytotoxicity): 6.03E-06
- IC10, linear ([6]; Bioassay ARE, cytotoxicity, linear model fit): 7.17E-06
- logIC10 ([6]; Bioassay ARE, cytotoxicity, log-logistic model fit): -5.22
- IC10, linear transformed ([6]; MMP bioassay cytotoxicity): 8.72E-06
- IC10, linear ([6]; MMP bioassay cytotoxicity, linear model): 8.88E-06
- logIC10 ([6]; MMP bioassay cytotoxicity, log-logistic model): -5.06
- Toxic ratio (TR) TRARE ([6]; against baseline cytotoxicity, ARE readout): 0.88
- Toxic ratio (TR) TRMMP ([6]; against baseline cytotoxicity, MMP readout): 0.61
- IC10, MCF7, ARE ([6]; cytotoxicity, MCF7, ARE readout): 6.03 µM
- IC10, MCF7, MMP ([6]; cytotoxicity, MCF7, MMP readout): 8.72 µM

Structure (SMILES): CC(C)(c1ccc(O)cc1)c1ccc(O)cc1 [BPA, 4,4'-(Propane-2,2-diyl)diphenol, reference compound]
- oxidative stress response (ARE activation) [1]: did not induce ARE
- EC10 ([1]; Arec32, read-out: EC10, linear transformed): 1510 µM
- EC10, linear [1]: no effect
- logEC10 [1]: masked by cytotoxicity
- EC10 ([2]; read-out: EC10, NOI): 5.08e-05 M
- EC10 ([2]; read-out: EC10, NOI (M)): 5.08e-05 M
- EC10 ([2]; read-out: EC10, linear): 7.16e-05 M
- EC10 [2, 7]: 7.63e-05 M
- EC10 ([2]; read-out: logEC10): 5.13e-05 M
- Specificity ratio (SRbaseline) SRNOI ([2]; against baseline cytotoxicity): 0.40
- Specificity ratio (SRcytotoxicity) SRNOI ([2]; human, 24 h): 4.68
- Relative effect potency REPNOI ([2]; relative to BPA): 1.00
- SR (neurite outgrowth inhibition) ([2]; specificity ratio): < 10
- IC10, linear [3]: no cytotoxicity
- logIC10 ([3]; rat, 24 h): -3.77
- Toxic ratio (TR) TRPPARγ ([4]; human, 24 h): 0.38
- logIC10 ([4]; human, 24 h): -4.45
- IC10, linear [5]: no cytotoxicity
- logIC10 [5]: no cytotoxicity
- Toxic ratio (TR) TRERα ([5]; human, 24 h): 0.28
- logIC10 ([5]; human, 24 h): -4.33
- Toxic ratio (TR) TRARE ([6]; human, 24 h): 0.37
- Toxic ratio (TR) TRMMP ([6]; human, 24 h): 0.31
